Assays:
[1] = test system: annual bluegrass (Poa Annua); experiment: Percent control of annual bluegrass (browning, necrosis, melt-down, plant death); format: in vivo
Protocol: (§1) In this evaluation, annual bluegrass (Poa Annua) was grown, and the compounds were applied at various growth stages of the annual bluegrass as depicted in Table Ia using a randomized complete block design of four replications with ten treatments including one untreated control. The compounds were applied using water as the carrier. The results shown in Table Ib depict control of annual bluegrass, which includes browning, necrosis, melt-down and plant death. The results shown in Table Ic depict the amount of seeds on the plants and on the ground for the various treatments.

[2] = test system: annual bluegrass (Poa Annua); experiment: Seed/biomass effect on annual bluegrass at Day 212; format: in vivo; details: for Biomass Dry Weight: control (none) 251
Protocol: as §1

`CP(=O)(O)CCC(N)C(=O)O` (centres unmarked) [Glufosinate-Ammonium, 2-amino-4-(hydoxymethylphosphinyl)butanoic acid] was tested, and the “% Control at Days After First Treatment (DAT)” value (“% Control” below) ([1]; 17 DAT, application time A (seedling, day 1), rate 0.375 lb/A (420)) was 80%, the “% Control” value ([1]; 43 DAT, application time A (seedling, day 1), rate 0.375 lb/A (420)) was 80% and the “% Control” value ([1]; 43 DAT, application time C (tillering, day 35), rate 0.375 lb/A (420)) was 10%. For the same compound, the “% Control” value ([1]; 77 DAT, application time A (seedling, day 1), rate 0.375 lb/A (420)) was 74%, the “% Control” value ([1]; 77 DAT, application time C (tillering, day 35), rate 0.375 lb/A (420)) was 96% and the “% Control” value ([1]; 151 DAT, application time A (seedling, day 1), rate 0.375 lb/A (420)) was 33%. For the same compound, the “% Control” value ([1]; 151 DAT, application time C (tillering, day 35), rate 0.375 lb/A (420)) was 74%, the “% Control” value ([1]; 151 DAT, application time E (flowering, day 136), rate 0.375 lb/A (420)) was 93% and the “% Control” value ([1]; 172 DAT, application time A (seedling, day 1), rate 0.375 lb/A (420)) was 3%. For the same compound, the “% Control” value ([1]; 172 DAT, application time C (tillering, day 35), rate 0.375 lb/A (420)) was 45%, the “% Control” value ([1]; 172 DAT, application time E (flowering, day 136), rate 0.375 lb/A (420)) was 65% and the “% Control” value ([1]; 204 DAT, application time A (seedling, day 1), rate 0.375 lb/A (420)) was 0%. The “% Control” value ([1]; 204 DAT, application time C (tillering, day 35), rate 0.375 lb/A (420)) was 18%, the “% Control” value ([1]; 204 DAT, application time E (flowering, day 136), rate 0.375 lb/A (420)) was 8% and the “Seeds on Ground” value ([2]; application time E, control (none) 30) was 34 g/5 sq ft. The “Seeds on Plant” value ([2]; application time E, control (none) 37) was 32 g/5 sq ft, the “Biomass Dry Weight” value ([2]; application time E) was 184 g/5 sq ft and the “Seeds on Ground” value ([2]; application time E, control (none) 669) was 816 seeds/0.3 g. For the same compound, the “Seeds on Plant” value ([2]; application time E, control (none) 864) was 1000 seeds/0.3 g.
With `CCC(=O)C1=C([O-])CC(C(=O)[O-])CC1=O.[Ca+2]` (centres unmarked) [Prohexadione-Calcium, calsium 3,5-dioxo-4-(1-oxopropyl)cyclohexanecarboxylate] the “% Control” value ([1]; 17 DAT, application time A (seedling, day 1), rate 0.125 lb/A (140)) was 0%, the “% Control” value ([1]; 17 DAT, application times A + B (seedling, days 1 and 15), rate A = 0.125 (140) + B = 0.125 (140) lb/A) was 0% and the “% Control” value ([1]; 43 DAT, application time A (seedling, day 1), rate 0.125 lb/A (140)) was 0%. For the same compound, the “% Control” value ([1]; 43 DAT, application time C (tillering, day 35), rate 0.125 lb/A (140)) was 0%, the “% Control” value ([1]; 43 DAT, application times A + B (seedling, days 1 and 15), rate A = 0.125 (140) + B = 0.125 (140) lb/A) was 0% and the “% Control” value ([1]; 77 DAT, application time A (seedling, day 1), rate 0.125 lb/A (140)) was 0%. For the same compound, the “% Control” value ([1]; 77 DAT, application time C (tillering, day 35), rate 0.125 lb/A (140)) was 0%, the “% Control” value ([1]; 77 DAT, application times A + B (seedling, days 1 and 15), rate A = 0.125 (140) + B = 0.125 (140) lb/A) was 0% and the “% Control” value ([1]; 77 DAT, application times C + D (tillering, days 35 and 51), rate C = 0.125 (140) + D = 0.125 (140) lb/A) was 0%. For the same compound, the “% Control” value ([1]; 151 DAT, application time A (seedling, day 1), rate 0.125 lb/A (140)) was 0%, the “% Control” value ([1]; 151 DAT, application time C (tillering, day 35), rate 0.125 lb/A (140)) was 0% and the “% Control” value ([1]; 151 DAT, application times A + B (seedling, days 1 and 15), rate A = 0.125 (140) + B = 0.125 (140) lb/A) was 0%. For the same compound, the “% Control” value ([1]; 151 DAT, application times C + D (tillering, days 35 and 51), rate C = 0.125 (140) + D = 0.125 (140) lb/A) was 0%, the “% Control” value ([1]; 172 DAT, application time A (seedling, day 1), rate 0.125 lb/A (140)) was 0% and the “% Control” value ([1]; 172 DAT, application time C (tillering, day 35), rate 0.125 lb/A (140)) was 0%. The “% Control” value ([1]; 172 DAT, application time F (flowering to soft dough, day 155), rate 0.250 lb/A (280)) was 60%, the “% Control” value ([1]; 172 DAT, application times A + B (seedling, days 1 and 15), rate A = 0.125 (140) + B = 0.125 (140) lb/A) was 0% and the “% Control” value ([1]; 172 DAT, application times C + D (tillering, days 35 and 51), rate C = 0.125 (140) + D = 0.125 (140) lb/A) was 0%. For the same compound, the “% Control” value ([1]; 204 DAT, application time A (seedling, day 1), rate 0.125 lb/A (140)) was 0%, the “% Control” value ([1]; 204 DAT, application time C (tillering, day 35), rate 0.125 lb/A (140)) was 0% and the “% Control” value ([1]; 204 DAT, application time F (flowering to soft dough, day 155), rate 0.250 lb/A (280)) was 95%. The “% Control” value ([1]; 204 DAT, application times A + B (seedling, days 1 and 15), rate A = 0.125 (140) + B = 0.125 (140) lb/A) was 0%, the “% Control” value ([1]; 204 DAT, application times C + D (tillering, days 35 and 51), rate C = 0.125 (140) + D = 0.125 (140) lb/A) was 0% and the “Seeds on Ground” value ([2]; application time F, prohexadione-calcium treatment, control (none) 30) was 50 g/5 sq ft. The “Seeds on Plant” value ([2]; application time F, prohexadione-calcium treatment, control (none) 37) was 34 g/5 sq ft, the “Biomass Dry Weight” value ([2]; application time F, prohexadione-calcium treatment) was 188 g/5 sq ft and the “Seeds on Ground” value ([2]; application time F, prohexadione-calcium treatment, control (none) 669) was 583 seeds/0.3 g. The “Seeds on Plant” value ([2]; application time F, prohexadione-calcium treatment, control (none) 864) was 822 seeds/0.3 g.
